Assay results taken from the supplement of paper PMC11451515.

Test system: P12-Ichikawa
Assay: cell viability relative to DMSO control; higher = less cytotoxic
Conditions: 48 h
In short: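 Three leukemia lines were tested: NOMO1 and SEM at 500 cells/well and P12-Ichikawa at 1000 cells/well. Each was adapted for at least four passages in each medium and seeded in 5 μl in 1536-well plates, and library compounds in DMSO were pin-dosed from 47 μM to 0.79 nM in 11 threefold steps. After 48 h at 37°C, CellTiter-Glo One luminescence was read. Viability is a percentage relative to DMSO wells on each plate, with cell-free wells as background.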

[1] = HPLM + 10% dialyzed FBS, 0.000781 µM
[2] = HPLM + 10% dialyzed FBS, 0.00234 µM
[3] = HPLM + 10% dialyzed FBS, 0.00702 µM
[4] = HPLM + 10% dialyzed FBS, 0.0211 µM
[5] = HPLM + 10% dialyzed FBS, 0.0632 µM
[6] = HPLM + 10% dialyzed FBS, 0.19 µM
[7] = HPLM + 10% dialyzed FBS, 0.569 µM
[8] = HPLM + 10% dialyzed FBS, 1.71 µM
[9] = HPLM + 10% dialyzed FBS, 5.12 µM
[10] = HPLM + 10% dialyzed FBS, 15.4 µM
[11] = HPLM + 10% dialyzed FBS, 46.1 µM
[12] = RPMI 5 mM glucose + 10% FBS, 0.000781 µM
[13] = RPMI 5 mM glucose + 10% FBS, 0.00234 µM
[14] = RPMI 5 mM glucose + 10% FBS, 0.00702 µM
[15] = RPMI 5 mM glucose + 10% FBS, 0.0211 µM
[16] = RPMI 5 mM glucose + 10% FBS, 0.0632 µM
[17] = RPMI 5 mM glucose + 10% FBS, 0.19 µM
[18] = RPMI 5 mM glucose + 10% FBS, 0.569 µM
[19] = RPMI 5 mM glucose + 10% FBS, 1.71 µM
[20] = RPMI 5 mM glucose + 10% FBS, 5.12 µM
[21] = RPMI 5 mM glucose + 10% FBS, 15.4 µM
[22] = RPMI 5 mM glucose + 10% FBS, 46.1 µM
[23] = RPMI 5 mM glucose + 10% dialyzed FBS, 0.000781 µM
[24] = RPMI 5 mM glucose + 10% dialyzed FBS, 0.00234 µM
[25] = RPMI 5 mM glucose + 10% dialyzed FBS, 0.00702 µM
[26] = RPMI 5 mM glucose + 10% dialyzed FBS, 0.0211 µM
[27] = RPMI 5 mM glucose + 10% dialyzed FBS, 0.0632 µM
[28] = RPMI 5 mM glucose + 10% dialyzed FBS, 0.19 µM
[29] = RPMI 5 mM glucose + 10% dialyzed FBS, 0.569 µM
[30] = RPMI 5 mM glucose + 10% dialyzed FBS, 1.71 µM
[31] = RPMI 5 mM glucose + 10% dialyzed FBS, 5.12 µM
[32] = RPMI 5 mM glucose + 10% dialyzed FBS, 15.4 µM
[33] = RPMI 5 mM glucose + 10% dialyzed FBS, 46.1 µM

| SMILES | cell viability [1] | cell viability [2] | cell viability [3] | cell viability [4] | cell viability [5] | cell viability [6] | cell viability [7] | cell viability [8] | cell viability [9] | cell viability [10] | cell viability [11] | cell viability [12] | cell viability [13] | cell viability [14] | cell viability [15] | cell viability [16] | cell viability [17] | cell viability [18] | cell viability [19] | cell viability [20] | cell viability [21] | cell viability [22] | cell viability [23] | cell viability [24] | cell viability [25] | cell viability [26] | cell viability [27] | cell viability [28] | cell viability [29] | cell viability [30] | cell viability [31] | cell viability [32] | cell viability [33] |
| --- | --- | --- | --- | --- | --- | --- | --- | --- | --- | --- | --- | --- | --- | --- | --- | --- | --- | --- | --- | --- | --- | --- | --- | --- | --- | --- | --- | --- | --- | --- | --- | --- | --- |
| CN(C)c1ccc2cc(C(=O)N[C@@H](CCCNC(=N)CCl)C(=O)NCc3ccccc3)ccc2c1 | 103% | 113% | 105% | 113% | 112% | 103% | 108% | 107% | 104% | 93.9% | 19% | 121% | 111% | 97.9% | 115% | 106% | 116% | 122% | 116% | 104% | 93% | 9.92% | 109% | 108% | 108% | 109% | 110% | 101% | 99.6% | 97.1% | 106% | 92% | 8.85% |
| OCCCNc1cc(-c2ccnc(Nc3cccc(Cl)c3)n2)ccn1 | 98% | 99.8% | 107% | 109% | 110% | 113% | 65.4% | 13.6% | 10.3% | 8.26% | 7.93% | 102% | 105% | 105% | 104% | 118% | 87.9% | 55.6% | 12.1% | 7.63% | 8.26% | 5.79% | 94.9% | 106% | 106% | 119% | 113% | 100% | 43.7% | 11.9% | 10.5% | 11% | 9.06% |
| CCCCCCCCCCCCCCCCCCOP(=O)([O-])OC1CC[N+](C)(C)CC1 | 112% | 111% | 114% | 113% | 111% | 109% | 121% | 114% | 106% | 104% | 112% | 104% | 106% | 99.9% | 87% | 107% | 111% | 113% | 124% | 103% | 105% | 95.3% | 105% | 110% | 126% | 78.2% | 111% | 110% | 115% | 121% | 110% | 105% | 113% |
| CCN(CC)CCN1C(=O)\C(=N/C2=CC=CC=C12)CC3=CC=C(OC)C=C3 | 107% | 111% | 110% | 114% | 119% | 114% | 120% | 113% | 109% | 114% | 113% | 93.6% | 113% | 109% | 119% | 127% | 121% | 130% | 119% | 111% | 114% | 119% | 107% | 112% | 118% | 107% | 112% | 109% | 109% | 111% | 104% | 96.5% | 96.6% |
